According to patent US11820745B2, “PKC-activating compounds for the treatment of neurodegenerative diseases” (Synaptogenix, Inc., priority 2008, dated 2023):

Legend:
[1] = test system: TACE; experiment: TACE assay in rat primary neurons; type: cell-based; conditions: primary neurons from rat hippocampus; FIGS. 9b, c
Method: TACE Assay. TACE was measured by incubating 5 μl cell homogenate, 3 μl buffer (50 mM Tris-HCl 7.4 plus 25 mM NaCl plus 4% glycerol), and 1 of 100 μM TACE substrate IV (Aβz-LAQAVRSSSR-DPa) (Calbiochem) for 20 min at 37° in 1.5-ml polypropylene centrifuge tubes (Jin et al., Anal Biochem. 2002; 302: 269-75). The reaction was stopped by cooling to 4° C. The samples were diluted to 1 ml and the fluorescence was rapidly measured (ex=320 nm, em=420 nm) in a Spex Fluorolog 2 spectrofluorometer.

[2] = test system: Aβ; experiment: Degradation of exogenously applied Aβ in SH-SY5Y neuroblastoma cells; type: cell-based, human; conditions: 0.01 to 10 μM; 100 nM exogenous monomeric Aβ-42; 24 h; FIG. 8
Method: (§1) Cell culture. Rat hippocampal H19-71GF-IR cells (ATCC, Manassas, Va.) were plated onto poly-L-lysine coated plates and grown at 35° C. in DMEM/10% FCS for several days until about 50% coverage was obtained. The cells were then induced to differentiate into a neuronal phenotype by replacing the medium with 5 ml N2 medium containing 10 ng/ml basic fibroblast growth factor at 39° C. and grown in T-75 flasks at 37° C. Human SH-SY5Y neuroblastoma cells (ATCC) were cultured in 45% F12K/45% MEM/10% FCS. Mouse N2A neuroblastoma cells were cultured in DMEM/10% FCS without glutamine. Rat hippocampal neurons from 18-day-old embryonic
AB Measurement and Cell Viability Assay. Aβ was measured using an Aβ1-42 human fluorimetric ELISA kit (Invitrogen) according to the manufacturer's instructions. Results were measured in a Biotek Synergy HT microplate reader. AlamarBlue and CyQuant NF (Invitrogen) according to the manufacturer's instructions.
To determine whether the reduced levels of AP caused by PKC activators were due to inhibition of Aβ synthesis or activation of Aβ degradation, we applied BR-111 (DHA-CP6) (0.01 to 10 μM) and low concentrations (100 nM) of exogenous monomeric Aβ-42 to cultured SH-SY5Y cells. This concentration of Aβ is too low to produce measurable toxicity or cell death. […]

[3] = test system: PKC; experiment: PKC activity time course in rat hippocampal primary neurons; type: cell-based; conditions: sustained activation only observed in primary neurons
Method: as §1
Sprague Dawley rat brains were plated on 12- or 96-well plates coated with poly-D-lysine (Sigma-Aldrich, St, Louis, Mo.) in B-27 neurobasal medium containing 0.5 mM glutamine and 25 uM glutamate (Invitrogen, Carlsbad, Calif.) and cultured for three days in the medium without glutamate. […]
Protein kinase C assay. […] 0.5 μCi [^γ-32P]ATP was added and ^32P-phosphoprotein formation was measured by adsorption onto phosphocellulose as described previously. […] For measurements of activation by BR-101 (DCP-LA) and similar compounds, PKC activity was measured in the absence of diacylglycerol and phosphatidyl serine, as described by Kanno et al., and PKC δ, ε, η, and μ were measured in the absence of added EGTA and CaCl2, as described by Kanno et al., J. Lipid Res. 2006; 47: 1146-50. […]

[4] = test system: PKC; experiment: PKC activity time course in rat H19-7/IGF-IR hippocampal cells; type: cell-based
Method: as §1
Protein kinase C assay. Rat hippocampal cells were cultured and scraped in 0.2 ml homogenization buffer (20 triM Tris-HCl, pH 7.4, 50 mM NaF, 1 μg/ml leupeptin, and 0.1 mM PMSF) and homogenized by sonication in a Marsonix micro-probe sonicator (5 see, 10W). To measure PKC, 10 ul of cell homogenate or purified. PKC isozyme (purchased from Calbiochem) was incubated for 15 min at 37° C. in the presence of 10 μM histones, 4.89 mM CaCl2, 1.2 μg/μl phosphatidyl-L-serine, 0.18 μg/μl 1,2-dioctanoyl-sn-glycerol, 10 mM MgCl2, 20 mM HEPES (pH 7.4), 0.8 mM EDTA, 4 mM EGTA, 4% glycerol, 8 μg/ml aprotinin, 8 μg/ml leupeptin, and 2 mM benzamidine. 0.5 μCi [^γ-32P]ATP was added and ^32P-phosphoprotein formation was measured by adsorption onto phosphocellulose as described previously. Nelson and Alkon, J. Neurochemistry. 1995; 65: 2350-57. For measurements of activation by BR-101 (DCP-LA) and similar compounds, PKC activity was measured in the absence of diacylglycerol and phosphatidyl serine, as described by Kanno et al., and PKC δ, ε, η, and μ were measured in the absence of added EGTA and CaCl2, as described by Kanno et al., J. Lipid Res. 2006; 47: 1146-50. Low concentrations of Ca^2+ are used because high Ca^2+ interacts with the PKC phosphatidylserine binding site and prevents activation. For measurements of bryostatin activation, 1,2-diacylglycerol was omitted unless otherwise stated.

| Compound | TACE activity [1] | reduction of cellular levels of Aβ [2] | duration of PKC elevation [3] | downregulation of PKC [4] |
| --- | --- | --- | --- | --- |
| CCC1CC1CC1CC1CC1CC1CC1CC1CC1CC1CC1CC1CCC(=O)OC (stereo not shown) [BR-111, methyl-3-(2-((2-((2-((2-((2-((2-ethylcyclopropyl)methyl)cyclopropyl)methyl)cyclopropyl)methyl)-cyclopropyl)methyl)cyclopropyl)methyl)cyclopropyl)propanoate] | small increases | 45-63% | – | – |
| CCCCCC1CC1CC1CC1CCCCCCCC(=O)O (stereo not shown) [BR-101, 8-[2-(2-pentyl-cyclopropylmethyl)-cyclopropyl]-octanoic acid] | – | – | remained elevated for at least four hours | could not be measured |
